Laboratory results from paper PMC6270845, “Fluorescent Probes for Insect Ryanodine Receptors: Candidate Anthranilic Diamides” (Molecules, 2014).
Several values for one entry are separate records, joined by “and”; a condition that tells them apart may be missing. Equal entries are not always repeated. Where two headings read alike, the source gives them in different places.

Key:
[1] = test system: Plutella larvae; experiment: Insecticidal activity, leaf-dip bioassay; conditions: fourth instar larvae, cabbage leaf-dip, mortality after 96 h
[2] = molecular target: T1, house fly thoracic muscle RyR (Musca domestica, UniProt A0A9J7DBA3); experiment: Stimulation of [3H]Ry binding in Musca RyR radioligand assay; conditions: Musca muscle membrane, 1 nM [3H]Ry, 2 h at 37 °C
Description: (§1) [^3H]Ry (95 Ci/mmol, Perkin-Elmer Life Sciences, Boston, MA, USA) and [^3H]Chlo (78 Ci/mmol) were used in RyR binding assays with house fly thorax muscle membranes as reported earlier. Adults emerging from pupae obtained from Benzon Research (Carlisle, PA, USA) were used to collect the thoraces for membrane preparation. The following two buffers were used: (A) 10 μM phenylmethanesulfonyl fluoride, 0.8% bovine serum albumin, and 303 mM sucrose in 20 mM Tris-maleate, pH 7.0; and (B) 0.8 mM CaCl2, 2 mM ATP·Mg^2+ salt, and 1.5 M KCl in 10 mM Hepes, pH 7.4. Incubation mixtures were prepared by sequential addition to culture tubes of 200 μL of buffer B, 200 μL of buffer A containing thorax muscle membranes (200 μg protein) and then ethanol (5 μL) containing [^3H]Ry or [^3H]Chlo to give a final radioligand concentration of 1 nM. Finally, test compounds were added in 5 μL ethanol to give the specified concentrations of Fluor-Cl and Fluor-CN. Following incubation for 2 h at 37 °C, the mixtures were filtered through GF/B filters (Whatman, presoaked in ice-cold washing buffer) immediately after dilution with 5 mL of ice-cold washing buffer (150 mM KCl, 10 mM Hepes, pH 7.4). Each assay tube was further rinsed twice with 5 mL of ice-cold washing buffer, and the rinses were passed through the same filter. […] Binding data were analyzed and plotted by GraphPad Prism 5.0. […]

[3] = molecular target: T1, house fly thoracic muscle RyR; experiment: Inhibition of [3H]Chlo binding in Musca RyR radioligand assay; conditions: Musca muscle membrane, 1 nM [3H]Chlo, 2 h at 37 °C
Description: as §1

[4] = molecular target: T1, house fly thoracic muscle RyR; parameters: method as in PMID 22856329; conditions: read-out: Stimulation of [3H]Ry binding (EC50), reported value; cited from earlier work
[5] = molecular target: T1, house fly thoracic muscle RyR; parameters: method as in PMID 22856329; conditions: read-out: Inhibition of [3H]Chlo binding (IC50), reported value; cited from earlier work

EC50 [2]	IC50 [3]	SMILES	LC50 (95%CL) [1]	EC50 [4]	IC50 [5]
–	–	C#CCNC(=O)c1cc(Cl)cc(C)c1NC(=O)c1cc(Br)nn1-c1ncccc1Cl [Prop-Cl, 3-Bromo-N-(4-chloro-2-methyl-6-(prop-2-ynylcarbamoyl)phenyl)-1-(3-chloropyridin-2-yl)-1H-pyrazole-5-carboxamide]	0.080(0.024–0.152) ppm	–	–
–	–	Cc1cc(C(F)(C(F)(F)F)C(F)(F)F)ccc1NC(=O)c1cccc(I)c1C(=O)NC(C)(C)CS(C)(=O)=O [Flu, flubendiamide, reference compound]	0.056(0.037–0.068) ppm	–	–
5 to 7 nM and 5 nM	34 to 39 nM and 39 nM	Cc1cc(C#N)cc(C(=O)NCc2cn(-c3cc4ccc(O)cc4oc3=O)nn2)c1NC(=O)c1cc(Br)nn1-c1ncccc1Cl [Fluor-CN, 3-Bromo-1-(3-chloropyridin-2-yl)-N-(4-cyano-2-((1-(7-hydroxy-2-oxo-2H-chromen-3-yl)-1H-1,2,3-triazol-4-yl)methylcarbamoyl)-6-methylphenyl)-1H-pyrazole-5-carboxamide]	7.57(4.57–11.77) ppm	–	–
–	–	C#CCNC(=O)c1cc(C#N)cc(C)c1NC(=O)c1cc(Br)nn1-c1ncccc1Cl [Prop-CN, 3-bromo-N-(4-cyano-2-methyl-6-(prop 2-ynylcarbamoyl)phenyl)-1-(3-chloropyridin-2-yl)-1H-pyrazole-5-carboxamide]	0.34(0.24–0.43) ppm	–	–
–	–	CNC(=O)c1cc(Cl)cc(C)c1NC(=O)c1cc(Br)nn1-c1ncccc1Cl [Chlo, chlorantraniliprole]	0.033(0.006–0.059) ppm	3 to 15 nM	6 to 14 nM
–	–	CNC(=O)c1cc(C#N)cc(C)c1NC(=O)c1cc(Br)nn1-c1ncccc1Cl [Cyan, cyantraniliprole]	0.061(0.035–0.086) ppm	3 to 15 nM	6 to 14 nM
